Test results: patent publication US20240208909A1, “SUBSTITUTED QUINOLINE DERIVATIVES HAVING SOS1 INHIBITION ACTIVITIES AND USES THEREOF” (Accutar Biotechnology Inc., priority 2022, published 2024)

Columns and labels:
SOS1/KRAS-G12D = SOS1/KRAS-G12D (Homo sapiens (Human), UniProt Q07889); assay: SOS1/KRAS-G12D binding inhibition assay (AlphaScreen); settings: GST-SOS1 and 6*His KRAS-G12D, read-out: KrasG12D/SOS1 binding IC50
How it was run: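 GST-SOS1 (5 nM) pre-incubated 30 min with His6-KRAS-G12D (50 nM) in HEPES pH 7.4, NaCl, DTT, MgCl2, Tween-20, BSA; compound in 2% DMSO then added for 30 min at 4° C. GSH donor and Ni-NTA acceptor AlphaScreen beads, 2 h at 4° C; background-corrected % inhibition versus DMSO, IC50 by variable-slope nonlinear regression.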

K562 cells = assay: Cell growth inhibition of K562 cells (CellTiter-Glo); assay type: cell-based; settings: Homo sapiens, 120 h, 5 days
[1] = tested on: Phospho-ERK1/2 in DLD1 cells; assay: Phospho-ERK1/2 expression inhibition in DLD1 cells; assay type: cell-based; settings: Homo sapiens, DLD-1, 4 hours, read-out: DLD1 pERK IC50
How it was run: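 DLD1 cells (15,000/well) were plated overnight, then exposed to compounds for 4 h at 37 °C. Cells were formaldehyde-fixed and methanol-permeabilized. Phospho-ERK1/2 was detected in-cell with rabbit anti-phospho-ERK1/2 and an IRDye 800CW secondary antibody, imaged on a LI-COR Odyssey.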

SOS1/KRAS-G12D, sequence (Q07889 564-1049 limits assumed): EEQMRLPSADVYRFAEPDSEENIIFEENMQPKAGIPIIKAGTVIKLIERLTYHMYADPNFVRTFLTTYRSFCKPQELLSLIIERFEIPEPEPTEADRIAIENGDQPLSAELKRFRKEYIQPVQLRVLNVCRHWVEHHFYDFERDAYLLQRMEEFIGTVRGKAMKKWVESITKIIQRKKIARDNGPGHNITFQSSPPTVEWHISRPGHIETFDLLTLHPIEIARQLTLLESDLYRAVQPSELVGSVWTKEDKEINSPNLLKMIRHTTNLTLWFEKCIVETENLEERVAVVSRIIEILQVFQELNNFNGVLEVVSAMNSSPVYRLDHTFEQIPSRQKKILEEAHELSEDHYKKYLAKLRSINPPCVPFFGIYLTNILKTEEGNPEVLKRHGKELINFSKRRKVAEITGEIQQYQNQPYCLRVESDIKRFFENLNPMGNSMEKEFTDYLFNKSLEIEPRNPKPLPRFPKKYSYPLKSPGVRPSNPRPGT

| Structure (SMILES) | IC50 (SOS1/KRAS-G12D) [nM] | GI50 (K562 cells) [nM] | IC50 [1] [nM] |
| --- | --- | --- | --- |
| Cc1c([C@@H](C)Nc2ccnc3ccc(N4CC[C@@H](N)C4)cc23)cccc1C(F)(F)F [Compound 20, 6-((R)-3-aminopyrrolidin-1-yl)-N-((R)-1-(2-methyl-3-(trifluoromethyl)phenyl)ethyl)quinolin-4-amine] | > 100 | > 500 | > 500 |
| C[C@@H](Nc1ccnc2ccc(N3CCN(C(=O)[C@@H]4CCOC4)CC3)cc12)c1cccc(C(F)F)c1F [Compound 15, (4-(4-(((R)-1-(3-(difluoromethyl)-2-fluorophenyl)ethyl)amino)quinolin-6-yl)piperazin-1-yl)((R)-tetrahydrofuran-3-yl)methanone] | ≤ 10 | 100 to 500 | ≤ 150 |
| Cc1c([C@@H](C)Nc2ccnc3ccc(N4CCN[C@H](C)C4)cc23)cccc1C(F)(F)F [Compound 50, N-((R)-1-(2-methyl-3-(trifluoromethyl)phenyl)ethyl)-6-((R)-3-methylpiperazin-1-yl)quinolin-4-amine] | 10 to 100 | 100 to 500 | > 500 |
| CC(C)C(=O)N1CCC(F)(c2ccc3nccc(N[C@H](C)c4cccc(C(F)F)c4F)c3c2)CC1 [Compound 81, (R)-1-(4-(4-((1-(3-(difluoromethyl)-2-fluorophenyl)ethyl)amino)quinolin-6-yl)-4-fluoropiperidin-1-yl)-2-methylpropan-1-one] | ≤ 10 | ≤ 100 | ≤ 150 |
| C[C@@H](Nc1ccnc2ccc(N3CCOCC3)cc12)c1cccc(C(F)F)c1F [Compound 48, (R)-N-(1-(3-(difluoromethyl)-2-fluorophenyl)ethyl)-6-morpholinoquinolin-4-amine] | ≤ 10 | ≤ 100 | ≤ 150 |
| Cc1c([C@@H](C)Nc2ccnc3ccc(C4(F)CCN(C(=O)C(C)C)CC4)cc23)cccc1C(F)(F)F [Compound 82, (R)-1-(4-fluoro-4-(4-((1-(2-methyl-3-(trifluoromethyl)phenyl)ethyl)amino)quinolin-6-yl)piperidin-1-yl)-2-methylpropan-1-one] | > 100 | 100 to 500 | > 500 |
| COc1cc2nccc(N[C@H](C)c3cccc(C(F)(F)F)c3C)c2cc1N1CCNCC1 [Compound 55, (R)-7-methoxy-N-(1-(2-methyl-3-(trifluoromethyl)phenyl)ethyl)-6-(piperazin-1-yl)quinolin-4-amine] | 10 to 100 | > 500 | > 500 |
| CC(=O)N1CC[C@](F)(c2ccc3nccc(N[C@H](C)c4cccc(C(F)F)c4F)c3c2)C1 [Compound 85, 1-((S)-3-(4-(((R)-1-(3-(difluoromethyl)-2-fluorophenyl)ethyl)amino)quinolin-6-yl)-3-fluoropyrrolidin-1-yl)ethan-1-one] | ≤ 10 | 100 to 500 | > 500 |
| CC(=O)N1CCC(c2ccc3nccc(N[C@H](C)c4cccc(C(F)F)c4F)c3c2)CC1 [Compound 13, (R)-1-(4-(4-((1-(3-(difluoromethyl)-2-fluorophenyl)ethyl)amino)quinolin-6-yl)piperidin-1-yl)ethan-1-one] | ≤ 10 | ≤ 100 | 150 to 500 |
| Cc1c([C@@H](C)Nc2ccnc3ccc(N4CCNC5(CC5)C4)cc23)cccc1C(F)(F)F [Compound 69, (R)-N-(1-(2-methyl-3-(trifluoromethyl)phenyl)ethyl)-6-(4,7-diazaspiro[2.5]octan-7-yl)quinolin-4-amine] | 10 to 100 | 100 to 500 | > 500 |
| CC(=O)N1CCN(c2ccc3nccc(N[C@H](C)c4cccc(C(F)(F)F)c4C)c3c2)CC1(C)C [Compound 36, (R)-1-(2,2-dimethyl-4-(4-((1-(2-methyl-3-(trifluoromethyl)phenyl)ethyl)amino)quinolin-6-yl)piperazin-1-yl)ethan-1-one] | 10 to 100 | 100 to 500 | > 500 |
| COC1(c2ccc3nccc(N[C@H](C)c4cccc(C(F)F)c4F)c3c2)CCN(C(C)=O)CC1 [Compound 72, (R)-1-(4-(4-((1-(3-(difluoromethyl)-2-fluorophenyl)ethyl)amino)quinolin-6-yl)-4-methoxypiperidin-1-yl)ethan-1-one] | ≤ 10 | ≤ 100 | ≤ 150 |
| CC(=O)N1CCN(c2ccc3nccc(N[C@H](C)c4cccc(C(F)F)c4F)c3c2)CC1 [Compound 12, (R)-1-(4-(4-((1-(3-(difluoromethyl)-2-fluorophenyl)ethyl)amino)quinolin-6-yl)piperazin-1-yl)ethan-1-one] | ≤ 10 | ≤ 100 | ≤ 150 |
| CC(=O)N[C@H]1CCN(c2ccc3nccc(N[C@H](C)c4cccc(C(F)(F)F)c4C)c3c2)C1 [Compound 39, N-((S)-1-(4-(((R)-1-(2-methyl-3-(trifluoromethyl)phenyl)ethyl)amino)quinolin-6-yl)pyrrolidin-3-yl)acetamide] | > 100 | > 500 | > 500 |
| CC(=O)N1CCN(c2ccc3nccc(N[C@H](C)c4cccc(C(F)(F)F)c4C)c3c2)[C@@H](C)C1 [Compound 61, 1-((S)-3-methyl-4-(4-(((R)-1-(2-methyl-3-(trifluoromethyl)phenyl)ethyl)amino)quinolin-6-yl)piperazin-1-yl)ethan-1-one] | > 100 | > 500 | > 500 |
| CO[C@@]1(c2ccc3nccc(N[C@H](C)c4cccc(C#N)c4C)c3c2)CCN(C(C)=O)C1 [Compound 87, 3-((R)-1-((6-((R)-1-acetyl-3-methoxypyrrolidin-3-yl)quinolin-4-yl)amino)ethyl)-2-methylbenzonitrile] | > 100 | > 500 | > 500 |
| CO[C@]1(c2ccc3nccc(N[C@H](C)c4cccc(C#N)c4C)c3c2)CCN(C(C)=O)C1 [Compound 88, 3-((R)-1-((6-((S)-1-acetyl-3-methoxypyrrolidin-3-yl)quinolin-4-yl)amino)ethyl)-2-methylbenzonitrile] | 10 to 100 | 100 to 500 | ≤ 150 |
| CC(=O)N1CCN(c2ccc3nccc(N[C@H](C)c4cccc(C(F)(F)F)c4C)c3c2)CC1 [Compound 27, (R)-1-(4-(4-((1-(2-methyl-3-(trifluoromethyl)phenyl)ethyl)amino)quinolin-6-yl)piperazin-1-yl)ethan-1-one] | 10 to 100 | > 500 | > 500 |
| Cc1c([C@@H](C)Nc2ccnc3ccc(N4CCC(N5CCC5)CC4)cc23)cccc1C(F)(F)F [Compound 65, (R)-6-(4-(azetidin-1-yl)piperidin-1-yl)-N-(1-(2-methyl-3-(trifluoromethyl)phenyl)ethyl)quinolin-4-amine] | 10 to 100 | > 500 | > 500 |
| C[C@@H](Nc1ccnc2ccc(N3CC[C@@H](N)C3)cc12)c1cccc(C(F)F)c1F [Compound 9, 6-((R)-3-aminopyrrolidin-1-yl)-N-((R)-1-(3-(difluoromethyl)-2-fluorophenyl)ethyl)quinolin-4-amine] | ≤ 10 | 100 to 500 | 150 to 500 |
| Cc1c([C@@H](C)Nc2c(C#N)cnc3ccc(N4CCN(C(=O)C5CCOC5)CC4)cc23)cccc1C(F)(F)F (stereo partly drawn) [Compound 3, 4-(((R)-1-(2-methyl-3-(trifluoromethyl)phenyl)ethyl)amino)-6-(4-(tetrahydrofuran-3-carbonyl)piperazin-1-yl)quinoline-3-carbonitrile] | > 100 | > 500 | > 500 |
| Cc1c([C@@H](C)Nc2ccnc3ccc(N4CCN(c5cnn(C)c5)CC4)cc23)cccc1C(F)(F)F [Compound 24, (R)-6-(4-(1-methyl-1H-pyrazol-4-yl)piperazin-1-yl)-N-(1-(2-methyl-3-(trifluoromethyl)phenyl)ethyl)quinolin-4-amine] | > 100 | 100 to 500 | > 500 |
| CO[C@@]1(c2ccc3nccc(N[C@H](C)c4cccc(C(F)F)c4F)c3c2)CCN(C(=O)C2CC2)C1 [Compound 95, cyclopropyl((R)-3-(4-(((R)-1-(3-(difluoromethyl)-2-fluorophenyl)ethyl)amino)quinolin-6-yl)-3-methoxypyrrolidin-1-yl)methanone] | ≤ 10 | 100 to 500 | > 500 |
| CC(=O)N[C@@H]1CCN(c2ccc3nccc(N[C@H](C)c4cccc(C(F)(F)F)c4C)c3c2)C1 [Compound 38, N-((R)-1-(4-(((R)-1-(2-methyl-3-(trifluoromethyl)phenyl)ethyl)amino)quinolin-6-yl)pyrrolidin-3-yl)acetamide] | > 100 | > 500 | > 500 |
| CC(=O)N1CC=C(c2ccc3nccc(N[C@H](C)c4cccc(C(F)F)c4F)c3c2)C1 [Compound 97, (R)-1-(3-(4-((1-(3-(difluoromethyl)-2-fluorophenyl)ethyl)amino)quinolin-6-yl)-2,5-dihydro-1H-pyrrol-1-yl)ethan-1-one] | 10 to 100 | 100 to 500 | > 500 |
| CNC(=O)N1CC[C@](OC)(c2ccc3nccc(N[C@H](C)c4cccc(C(F)F)c4F)c3c2)C1 [Compound 102, (S)-3-(4-(((R)-1-(3-(difluoromethyl)-2-fluorophenyl)ethyl)amino)quinolin-6-yl)-3-methoxy-N-methylpyrrolidine-1-carboxamide] | ≤ 10 | ≤ 100 | ≤ 150 |
